This test concerns oral sensitization model of BALB/c mouse. Briefly: Oral sensitization model with OVA, oligosaccharide-added feeds, serum antigen-specific antibody titer (ELISA). Format: in vivo. Conditions: 5% (w/w) in feed. The text has this: An oral sensitization model of BALB/c mouse using ovalbumin (OVA) as a model antigen was produced, and influences exerted by various oligosaccharides added to feed on serum antibody titer were compared. Until initiation of the experiment, 12-week old male BALM/c mice were allowed to freely take AIN-93G as a base feed (α-corn starch, 529.5 g/kg; casein, 200 g/kg; sucrose, 100 g/kg; soy bean oil, 70 g/kg; cellulose, 50 g/kg; mineral mixing, 35 g/kg; vitamin mixing, 10 g/kg; L-cystine, 3 g/kg; choline bitartarate, 2.5 g/kg) . After pre-breeding for 1 week, an oligosaccahide no-[…] (base seed) group, and feeds obtained by substituting 5% (w/w) of the base feed with raffinose (RAF), α-GOS (hereinafter, referred to simply as GOS), fructooligosaccharide (FOS), xylooligosaccharide (XOS), that is, five groups were prepared, and mice were allowed to freely take these feeds for 8weeks. During this, an aqueous OVA solution (1 mg/0.2 mL) was orally administered forcibly everyday. After initiation of aministration of OVA, blood was collected from orbital venous plexus every one week, and centrifugally separated to obtain sera. Sear of one group (9/group) were pooled, and subjected to quantification of antigen-specific antibody titer by ELISA.

As for `OC[C@H]1O[C@H](OC[C@H]2O[C@H](O[C@]3(CO)O[C@H](CO)[C@@H](O)[C@@H]3O)[C@H](O)[C@@H](O)[C@@H]2O)[C@H](O)[C@@H](O)[C@H]1O` [RAF, raffinose], for the setting “8 weeks daily oral OVA”, the “effect on increase of IgE (overall conclusion)” value is “effect of delaying increase” and the “effect on increase of IgG (overall conclusion)” value is reported as “effect of delaying increase”. For the same compound, the “antigen-specific IgG in blood” value (at 2 to 5 weeks) is “changed lower than the oligosaccharide no-addition feed group”. Also, the “antigen-specific IgE in blood” value (at 8 weeks) is “showed the same high value as that of the FOS group”. For the same compound, the “antigen-specific IgE in blood” value (until 7 weeks) was “changed lower than the oligosaccharide no-addition feed group and the FOS feed group”.

The values above are taken from patent US20060234980A1, “Antiinflammatory agent, agent for preventing/ameliorating allergic diseases and functional food” (priority 2002, published 2006).
